{"source": "ChEMBL document CHEMBL3045234", "about": "“Synthesis of new pyridazinone derivatives as platelet aggregation inhibitors” (2010)", "type_in_all_cases": "functional", "key": {"[1]": {"test": "Antiplatelet activity in Mus musculus Laca (mouse) platelet assessed as bleeding time at 7.5 mg/kg, po after 1 hr by tail transaction bleeding test (reference value: 3.2 +/- 0.218 min)"}, "[2]": {"test": "Antiplatelet activity in Mus musculus Laca (mouse) platelet assessed as bleeding time at 15 mg/kg, po after 1 hr by tail transaction bleeding test (reference value: 3.2 +/- 0.218 min)"}, "[3]": {"test": "Antiplatelet activity in Mus musculus Laca (mouse) platelet assessed as bleeding time at 60 mg/kg, po after 1 hr by tail transaction bleeding test (reference value: 3.2 +/- 0.218 min)"}, "[4]": {"test": "Antiplatelet activity in Mus musculus Laca (mouse) platelet assessed as bleeding time at 15 mg/kg, po after 1 hr by tail transaction bleeding test relative to aspirin"}, "[5]": {"test": "Antiplatelet activity in Mus musculus Laca (mouse) platelet assessed as bleeding time at 30 mg/kg, po after 1 hr by tail transaction bleeding test (reference value: 3.2 +/- 0.218 min)"}}, "data": [{"smiles": "O=C1CCC(c2ccc(NCc3c[nH]c4ccccc34)cc2)=NN1", "values": [{"measurement": "Time", "setting": "[1]", "result": 5.5, "unit": "min"}, {"measurement": "Time", "setting": "[2]", "result": 8.3, "unit": "min"}, {"measurement": "Time", "setting": "[3]", "result": 9.7, "unit": "min"}, {"measurement": "fold change (FC)", "setting": "[4]", "result": ">2"}, {"measurement": "Time", "setting": "[5]", "result": 9.2, "unit": "min"}]}, {"smiles": "COc1cc(CNc2ccc(C3=NNC(=O)CC3)cc2)cc(OC)c1OC", "values": [{"measurement": "Time", "setting": "[1]", "result": 4.4, "unit": "min"}, {"measurement": "Time", "setting": "[2]", "result": 5.2, "unit": "min"}, {"measurement": "Time", "setting": "[3]", "result": 6.5, "unit": "min"}, {"measurement": "Time", "setting": "[5]", "result": 6.1, "unit": "min"}]}, {"smiles": "CC(=O)Oc1ccccc1C(=O)O", "note": "[ASPIRIN]", "values": [{"measurement": "Time", "setting": "[1]", "result": 4.2, "unit": "min"}, {"measurement": "Time", "setting": "[2]", "result": 5.3, "unit": "min"}, {"measurement": "Time", "setting": "[3]", "result": 6.6, "unit": "min"}, {"measurement": "Time", "setting": "[5]", "result": 6.1, "unit": "min"}]}, {"smiles": "O=C1CCC(c2ccc(NCc3ccncc3)cc2)=NN1", "values": [{"measurement": "Time", "setting": "[1]", "result": 4.3, "unit": "min"}, {"measurement": "Time", "setting": "[2]", "result": 5.3, "unit": "min"}, {"measurement": "Time", "setting": "[3]", "result": 7, "unit": "min"}, {"measurement": "Time", "setting": "[5]", "result": 6.2, "unit": "min"}]}, {"smiles": "O=C1CCC(c2ccc(NCc3cccnc3)cc2)=NN1", "values": [{"measurement": "Time", "setting": "[1]", "result": 4.1, "unit": "min"}, {"measurement": "Time", "setting": "[2]", "result": 5.5, "unit": "min"}, {"measurement": "Time", "setting": "[3]", "result": 6.6, "unit": "min"}, {"measurement": "Time", "setting": "[5]", "result": 6.2, "unit": "min"}]}, {"smiles": "COc1ccc(CNc2ccc(C3=NNC(=O)CC3)cc2)cc1OC", "values": [{"measurement": "Time", "setting": "[1]", "result": 4.2, "unit": "min"}, {"measurement": "Time", "setting": "[2]", "result": 5.6, "unit": "min"}, {"measurement": "Time", "setting": "[3]", "result": 7.1, "unit": "min"}, {"measurement": "Time", "setting": "[5]", "result": 6.5, "unit": "min"}]}, {"smiles": "O=C1CCC(c2ccc(NCc3ccccc3O)cc2)=NN1", "values": [{"measurement": "Time", "setting": "[1]", "result": 4.4, "unit": "min"}, {"measurement": "Time", "setting": "[2]", "result": 7.4, "unit": "min"}, {"measurement": "Time", "setting": "[3]", "result": 9.2, "unit": "min"}, {"measurement": "Time", "setting": "[5]", "result": 8.5, "unit": "min"}]}, {"smiles": "O=C1CCC(c2ccc(NCc3ccc(F)cc3)cc2)=NN1", "values": [{"measurement": "Time", "setting": "[1]", "result": 3.8, "unit": "min"}, {"measurement": "Time", "setting": "[2]", "result": 4.9, "unit": "min"}, {"measurement": "Time", "setting": "[3]", "result": 7, "unit": "min"}, {"measurement": "Time", "setting": "[5]", "result": 6.2, "unit": "min"}]}, {"smiles": "COc1cc(CNc2ccc(C3=NNC(=O)CC3)cc2)ccc1O", "values": [{"measurement": "Time", "setting": "[1]", "result": 4.1, "unit": "min"}, {"measurement": "Time", "setting": "[2]", "result": 5.2, "unit": "min"}, {"measurement": "Time", "setting": "[3]", "result": 7.3, "unit": "min"}, {"measurement": "Time", "setting": "[5]", "result": 6.1, "unit": "min"}]}]}
